Assay results published in article PMC7083851, “Extended pharmacodynamic responses observed upon PROTAC-mediated degradation of RIPK2” (Communications Biology, 2020).
Several values for one entry are separate records, joined by “and”; a condition that tells them apart may be missing. Identical values can stand only once.

Tests used:
Hepatocyte CLint, rat = assay type: in vitro ADME; settings: rat liver hepatocytes
Method: (§1) Metabolic stability was performed at Cyprotex (UK). Pooled liver microsomes / cryopreserved pooled hepatocytes were purchased from a commercial supplier (BD Biosciences or Corning/InVitro Technologies).
(§2) The final incubation volume was 500 µL. An appropriate vehicle control was used. Each compound was incubated for 0, 5, 10, 20, 40, and 60 min. The control (vehicle) was incubated for 60 min.
(§3) All incubations were terminated by transferring 50 μL of incubate to 100 μL of acetonitrile containing internal standard at the appropriate time points. The termination plates were centrifuged at 2500 rpm for 20–30min at 4 °C to precipitate the protein. Following protein precipitation, samples were analysed using quantitative LC-MS/MS.

Hepatocyte CLint, human = assay type: in vitro ADME; settings: human liver hepatocytes
Method: as §1, §2, §3

[1] = ChromLogD7.4 high-throughput chromatographic lipophilicity; assay type: physicochemical
Rat intravenous PK = assay type: in vivo
Method: Rats (n = 3) received a single intravenous (IV) bolus administration (1 mg/kg, 4 mL/kg, n = 3 rats) formulated as a solution in saline with the pH adjusted to 4.0.
Aliquots of diluted whole blood (50:50) were analysed using quantitative high-performance liquid chromatography with tandem mass spectrometric detection (LC/MS/MS) following protein precipitation. […] PK parameters were generated following non-compartmental analysis (Phoenix® WinNonlin® (Certara, L.P., St. Louis, MO)) of the resulting concentration-time data.

cIAP1 = target: T1, cIAP1 (Homo sapiens, UniProt Q13490); assay type: cell-based; settings: human PBMCs, 24 h, 1uM
T1 construct: endogenous in cells; host or cells: primary human PBMCs
T1 sequence (Q13490 whole entry): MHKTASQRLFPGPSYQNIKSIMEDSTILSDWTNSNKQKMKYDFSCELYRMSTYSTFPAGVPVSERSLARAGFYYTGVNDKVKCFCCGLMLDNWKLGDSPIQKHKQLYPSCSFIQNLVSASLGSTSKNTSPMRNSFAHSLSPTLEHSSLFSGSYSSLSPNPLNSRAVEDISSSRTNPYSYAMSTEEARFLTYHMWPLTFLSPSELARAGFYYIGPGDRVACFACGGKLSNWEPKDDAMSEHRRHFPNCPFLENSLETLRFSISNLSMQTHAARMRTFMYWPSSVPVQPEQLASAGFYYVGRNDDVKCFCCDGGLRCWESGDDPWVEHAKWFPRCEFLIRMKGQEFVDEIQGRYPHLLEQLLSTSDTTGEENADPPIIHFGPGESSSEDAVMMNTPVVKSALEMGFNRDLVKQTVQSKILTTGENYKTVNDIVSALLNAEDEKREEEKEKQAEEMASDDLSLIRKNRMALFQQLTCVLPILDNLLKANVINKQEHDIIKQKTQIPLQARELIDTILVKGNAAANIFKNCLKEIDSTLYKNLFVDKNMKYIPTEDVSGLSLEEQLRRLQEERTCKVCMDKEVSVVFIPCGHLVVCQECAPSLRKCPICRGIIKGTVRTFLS
Method: Where the assessment of cytokines was performed, L18-MDP was added to the cell culture media (1 μg/ml) or to the rat blood samples (100 ng/ml) and samples were incubated for up to 4 h. […] Samples were them spun down at 1000 g and the cell culture supernatant, plasma or serum were collected for cytokines assessment, while cell pellets were used for RIPK2 and/or cIAP1, cIAP2, and XIAP levels analysis via immunoblotting.
Simple Western immunoassay: Cell lysates were mixed with 5× concentrated master mix (Protein Simple) and denatured at 95 °C on a heat block for 5 min together with the provided ladder (Protein Simple). Antibodies were diluted in the provided buffer as following: anti-RIPK2 (1:10 or 1:50), anti-cIAP1(1:10), anti-cIAP2 (1:10), anti-XIAP (1:10), mouse anti-β-actin (Abcam - 1:1000), rabbit anti-β-actin (Abcam - 1:50) and anti-vinculin (1:100). All reagents (blocking buffer, primary and secondary antibodies, streptavadin, luminol/peroxide, separation matrix, stacking matrix and water) were added to the Protein Simple plate containing the ladder and lysates and the plate was placed in a Protein Simple Western instrument and the Simple Western default size assay protocol was used. […] The area under the peak values obtained for RIPK2, cIAP1, cIAP2 or XIAP were normalized relative to the control protein values.

[2] = system: spontaneous IL-1β, IL-6, and TNFα release; assay: Spontaneous cytokine release (IL-1β, IL-6, TNFα) from ulcerative colitis patient intestinal biopsies; assay type: cell-based, human; settings: for IL-1b (Ctrl=DMSO = 100) / IL-6 (Ctrl=DMSO = 100) / TNFa (Ctrl=DMSO = 100): individual biopsies, fig 4f
Method: (§4) Colonic biopsies or tissues were obtained during endoscopy or via surgical resection from Crohn’s Disease (CD) or Ulcerative Colitis (UC) patients (St Bartholomew’s Hospital, London). All patients gave informed written consent. For surgical specimens, the mucosa was dissected away from the submucosa and cut into pieces of ~10–20 mg. […] The supernatants were collected for cytokine measurement as detailed in cytokines assay section while tissues were used to determine RIPK2 levels.
(§5) Cytokine measurement assay: Cytokine levels were measured in rat plasma or rat PBMCs cell culture supernatants using rat V-Plex TNFα, in human plasma or human PBMCs cell culture supernatants with either TNFα tissue culture or 7-plex kit. Rat serum and tissues samples from the in vivo L18-MDP acute inflammation model were analyzed using the rat TNFα, Il-6 and IL-8 U-Plex kits. All kits provided by Meso Scale Discovery (MSD). Levels of cytokines spontaneously released from human colon biopsies cell culture supernatants were measured using Human IL-1 beta/IL-1F2 DuoSet ELISA (Bio-techne), Human IL-6 ELISA (Immunotools) and Human TNF-alpha DuoSet ELISA (Bio-techne). All samples were processed accordingly to the manufacturer’s instructions. The MSD plates were analyzed using the MSD sector imager 6000 plate reader and cytokines concentration (pg/ml) was obtained by using the MSD DISCOVERY WORKBENCH software version 4.0.12.1

[3] = system: spontaneous IL-1β, IL-6, and TNFα release; assay: Spontaneous cytokine release (IL-1β, IL-6, TNFα) from Crohn's disease patient intestinal biopsies; assay type: cell-based, human; settings: for IL-1b (Ctrl=DMSO = 100) / IL-6 (Ctrl=DMSO = 100) / TNFa (Ctrl=DMSO = 100): individual biopsies, fig 4e
Method: as §4, §5

[4] = system: L18-MDP-induced cytokine release; assay: In vivo L18-MDP acute inflammation model, distal colon cytokines; parameters: species or system rat; key to cytokine level (fig 6g) / cytokine level (fig 6h) / cytokine level (fig 6i): cytokine concentration in pg/ml (MSD U-Plex); settings: for cytokine level (fig 6g) / cytokine level (fig 6i) / cytokine level (fig 6h): distal colon, individual rats, beside L18-MDP control
Method: Cytokine levels were determined in serum generated from the terminal blood samples and in tissue lysates as detailed below.
as §5

[5] = Homo sapiens, 24 h, read-out: IC50 inhibition of spontaneous cytokine release

CN[C@@H](C)C(=O)N[C@H](C(=O)N1CCC[C@H]1c1nc(C(=O)c2ccc(F)cc2)cs1)C1CCN(C(=O)c2cnc(N3CCN(CCOc4cc5ncnc(Nc6n[nH]c(C)c6C)c5cc4S(=O)(=O)C(C)(C)C)CC3)nc2)CC1 [PROTAC 4]
clearance in hepatocytes (Hepatocyte CLint, rat): < 0.80 mL/min/g liver | clearance in hepatocytes (Hepatocyte CLint, human): < 0.45 mL/min/g liver | ChromLogD7.4 [1]: 4.2 | mean intravenous clearance in rats, in words (Rat intravenous PK; in vivo, iv): less than a quarter of liver blood flow | clearance (Rat intravenous PK; male, Sprague Dawley (PROTAC 4), Han Wistar (PROTAC 6), whole blood, IV bolus (4: 2 mg/kg; 6: 1 mg/kg)): 1.08 L/h/kg | half-life (Rat intravenous PK; male, Sprague Dawley (PROTAC 4), Han Wistar (PROTAC 6), whole blood, IV bolus (4: 2 mg/kg; 6: 1 mg/kg), read-out: Rat T½ (converted)): 6.9 h | Vd (Rat intravenous PK; male, Sprague Dawley (PROTAC 4), Han Wistar (PROTAC 6), whole blood, IV bolus (4: 2 mg/kg; 6: 1 mg/kg), read-out: Rat Vdss): 11 L/kg

CN[C@@H](C)C(=O)N[C@H](C(=O)N1C[C@@H](NC(=O)c2cnc(N3CCN(CCCOc4cc5ncnc(Nc6n[nH]c(C)c6C)c5cc4S(=O)(=O)C(C)(C)C)CC3)cn2)C[C@H]1C(=O)Nc1c(F)cccc1F)C(C)(C)C [PROTAC 6]
reduction in cIAP1 levels (cIAP1): ~ 25% | IC50 [2, 5]: 1 to 3 nM | IL-1b (Ctrl=DMSO = 100) ([2]; compound concentration 0.05 nM): 133 and 73 and 55 | IL-6 (Ctrl=DMSO = 100) ([2]; compound concentration 0.05 nM): 93 and 184 and 79 and 87 and 89 and 91 | TNFa (Ctrl=DMSO = 100) ([2]; compound concentration 0.05 nM): 89 and 94 (2×) and 80 and 99 | IL-1b (Ctrl=DMSO = 100) ([2]; compound concentration 0.5 nM): 74 and 22 and 52 and 46 | IL-6 (Ctrl=DMSO = 100) ([2]; compound concentration 0.5 nM): 92 and 83 and 67 and 77 and 80 and 11 and 42 | TNFa (Ctrl=DMSO = 100) ([2]; compound concentration 0.5 nM): 130 and 71 and 83 and 70 and 41 and 86 | IL-1b (Ctrl=DMSO = 100) ([2]; compound concentration 5 nM): 49 and 88 and 62 (2×) and 28 and 58 and 77 and 41 and 55 and 30 and 27 (2×) and 11 and 37 and 67 and 54 and 44 and 40 and 39 | IL-6 (Ctrl=DMSO = 100) ([2]; compound concentration 5 nM): 56 and 59 and 11 and 74 and 96 and 85 and 64 and 76 (2×) and 88 and 71 and 79 and 77 and 55 and 44 and 53 and 86 and 25 and 29 | TNFa (Ctrl=DMSO = 100) ([2]; compound concentration 5 nM): 36 and 47 and 58 and 65 and 88 and 75 and 56 and 78 and 49 and 67 (2×) and 48 and 31 and 86 and 41 and 66 and 57 | IL-1b (Ctrl=DMSO = 100) ([2]; compound concentration 50 nM): 38 and 22 and 12 (2×) and 95 and 26 and 24 and 43 and 15 and 68 and 21 and 1 and 23 and 39 and 18 and 7 and 11 and 34 | IL-6 (Ctrl=DMSO = 100) ([2]; compound concentration 50 nM): 60 and 39 and 68 and 67 and 21 (2×) and 10 and 19 and 76 and 22 and 48 (2×) and 75 and 36 and 35 and 62 and 11 and 24 | TNFa (Ctrl=DMSO = 100) ([2]; compound concentration 50 nM): 28 and 33 (2×) and 29 (2×) and 4 and 49 and 47 and 53 and 35 and 57 (2×) and 60 and 15 and 56 and 46 and 19 and 25 and 65 | IC50 [3, 5]: 1 to 3 nM | IL-1b (Ctrl=DMSO = 100) ([3]; compound concentration 0.05 nM): 94 and 86 and 97 | IL-6 (Ctrl=DMSO = 100) ([3]; compound concentration 0.05 nM): 105 and 101 and 86 | TNFa (Ctrl=DMSO = 100) ([3]; compound concentration 0.05 nM): 90 and 96 | IL-1b (Ctrl=DMSO = 100) ([3]; compound concentration 0.5 nM): 59 and 61 and 39 and 57 | IL-6 (Ctrl=DMSO = 100) ([3]; compound concentration 0.5 nM): 98 and 80 and 79 and 97 and 84 and 33 | TNFa (Ctrl=DMSO = 100) ([3]; compound concentration 0.5 nM): 87 (2×) and 88 and 52 | IL-1b (Ctrl=DMSO = 100) ([3]; compound concentration 5 nM): 50 and 72 and 71 and 12 and 58 and 31 and 5 and 56 and 44 and 41 (2×) and 49 and 74 and 81 | IL-6 (Ctrl=DMSO = 100) ([3]; compound concentration 5 nM): 56 and 35 and 85 (2×) and 14 (2×) and 49 and 48 and 89 and 101 and 72 and 66 and 70 and 53 | TNFa (Ctrl=DMSO = 100) ([3]; compound concentration 5 nM): 38 and 23 and 69 (2×) and 35 (2×) and 42 and 24 and 87 and 58 and 34 and 11 and 66 and 31 and 41 | IL-1b (Ctrl=DMSO = 100) ([3]; compound concentration 50 nM): 12 (2×) and 26 and 66 and 31 and 32 and 4 and 29 and 9 and 18 and 69 and 5 and 52 and 14 | IL-6 (Ctrl=DMSO = 100) ([3]; compound concentration 50 nM): 35 and 29 and 12 (2×) and 31 (2×) and 16 (2×) and 75 and 44 and 24 and 50 and 63 and 23 and 57 | TNFa (Ctrl=DMSO = 100) ([3]; compound concentration 50 nM): 42 and 16 and 50 (2×) and 37 (2×) and 0 and 30 (2×) and 24 and 78 and 25 and 60 and 34 and 59 | cytokine level (fig 6g) ([4]; time 6 h): 8.69 and 8.02 and 5.35 and 6.46 and 7.8 | cytokine level (fig 6i) ([4]; time 6 h): 31.46 and 23.18 and 30.08 and 19.04 and 32.01 | cytokine level (fig 6h) ([4]; time 6 h): 3.67 and 4.23 and 2.54 and 4.43 and 8.37 | cytokine level (fig 6g) ([4]; time 24 h): 4.03 and 4.53 and 7.05 and 7.3 | cytokine level (fig 6i) ([4]; time 24 h): 16.22 and 17.82 and 19.15 and 9.84 and 7.71 | cytokine level (fig 6h) ([4]; time 24 h): 8.38 and 32.32 and 14.19 | cytokine level (fig 6g) ([4]; time 72 h): 28.89 and 34.42 and 15.25 and 46.36 and 44.94 | cytokine level (fig 6i) ([4]; time 72 h): 33.56 and 43.62 and 27.96 and 81.66 and 38.4 | cytokine level (fig 6h) ([4]; time 72 h): 48.27 and 55.56 and 29.21 and 61.98 and 48.03 | cytokine level (fig 6g) ([4]; time 240 h): 191.84 and 104.55 and 3.3 and 94.35 | cytokine level (fig 6i) ([4]; time 240 h): 85.43 and 111.93 and 35.63 and 31.07 | cytokine level (fig 6h) ([4]; time 240 h): 84.17 and 74.27 and 51.45 and 69.43 | cytokine level (fig 6g) ([4]; time 408 h): 87.06 and 148.63 and 32.92 and 94.97 and 44.56 | cytokine level (fig 6i) ([4]; time 408 h): 82.16 and 113.16 and 73.99 and 122.46 and 42.47 | cytokine level (fig 6h) ([4]; time 408 h): 89.41 and 138.46 and 73.92 and 116.87 and 57.61 | release of TNFα and IL-8 in distal colon, in words ([4]; rat, 0.3 mg/kg SC, intravenous L18-MDP challenge): significantly inhibited for up to six days post-dose
